Active and inactive are the calls of the source.
What was measured:
[1] = molecular target: T1, Aurora kinase A (Homo sapiens) (UniProt O14965); test: Binding affinity to GST-tagged Aurora A after 1 hr by ELISA
T1 sequence (whole entry): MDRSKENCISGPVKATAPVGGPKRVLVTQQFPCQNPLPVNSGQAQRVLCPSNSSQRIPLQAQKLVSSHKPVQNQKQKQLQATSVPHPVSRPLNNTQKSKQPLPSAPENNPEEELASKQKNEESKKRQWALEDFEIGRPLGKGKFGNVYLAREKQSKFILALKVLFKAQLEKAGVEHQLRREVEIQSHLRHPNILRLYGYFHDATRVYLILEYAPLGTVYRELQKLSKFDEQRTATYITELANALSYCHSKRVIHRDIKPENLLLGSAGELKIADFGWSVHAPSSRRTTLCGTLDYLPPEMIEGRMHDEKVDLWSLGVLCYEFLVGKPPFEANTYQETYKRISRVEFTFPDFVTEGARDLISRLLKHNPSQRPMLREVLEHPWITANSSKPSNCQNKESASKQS

[2] = molecular target: T1, Aurora kinase A (Homo sapiens); test: Inhibition of Aurora A at 100 uM by IMAP fluorescence polarization assay
[3] = molecular target: T1, Aurora kinase A (Homo sapiens); test: Inhibition of Aurora A at 10 uM by IMAP fluorescence polarization assay

Activity [1]	inhibition [2]	inhibition [3] [%]	Molecule
Active	20%	–	H-AELAALEAELAALEGERRLIIFNSGKLAALKAKLAALKA-OH
Active	inactive	–	H-AELAALEAELAALEGARHFYVQSVGKLAALKAKLAALKA-OH
inactive	inactive	–	H-AELAALEAELAALEGGGGGGGKLAALKAKLAALKAY-NH2
Active	inactive	–	H-AELAALEAELAALEGVGEFSVSLLGKLAALKAKLAALKA-OH
–	inactive	–	H-GRRVVVAFAWD-NH2
Active	–	–	H-AELAALEAELAALEGGLSEVHGLSGKLAALKAKLAALKA-OH
–	–	42	H-AELAALEAELAALEGRRVVVAFAWDKLAALKAKLAALKA-NH2
Active	–	–	CC[C@H](C)[C@H](NC(=O)[C@H](CCCNC(=N)N)NC(=O)CNC(=O)[C@H](CC(C)C)NC(=O)[C@H](CC(C)C)NC(=O)[C@@H]1CCCN1C(=O)[C@H](CO)NC(=O)[C@H](Cc1c[nH]c2ccccc12)NC(=O)CNC(=O)[C@H](CCC(=O)O)NC(=O)[C@H](CC(C)C)NC(=O)[C@H](C)NC(=O)[C@H](C)NC(=O)[C@H](CC(C)C)NC(=O)[C@H](CCC(=O)O)NC(=O)[C@H](C)NC(=O)[C@H](CCC(=O)O)NC(=O)[C@H](CC(C)C)NC(=O)[C@H](C)NC(=O)[C@H](C)NC(=O)[C@H](CC(C)C)NC(=O)[C@H](CCC(=O)O)NC(=O)[C@@H](C)N)C(=O)N[C@@H](CC(C)C)C(=O)NCC(=O)N[C@@H](CCCCN)C(=O)N[C@@H](CC(C)C)C(=O)N[C@@H](C)C(=O)N[C@@H](C)C(=O)N[C@@H](CC(C)C)C(=O)N[C@@H](CCCCN)C(=O)N[C@@H](C)C(=O)N[C@@H](CCCCN)C(=O)N[C@@H](CC(C)C)C(=O)N[C@@H](C)C(=O)N[C@@H](C)C(=O)N[C@@H](CC(C)C)C(=O)N[C@@H](CCCCN)C(=O)N[C@@H](C)C(=O)O
Active	17%	–	H-AELAALEAELAALEGSSERKLVLLGKLAALKAKLAALKA-OH
Active	–	–	H-AELAALEAELAALEGAPCLVMTTAGKLAALKAKLAALKA-OH
Active	–	–	H-AELAALEAELAALEGDVAVAVRWDGKLAALKAKLAALKA-OH
Active	–	–	H-AELAALEAELAALEGWLIELLWIVGKLAALKAKLAALKA-OH
Active	35%	–	H-AELAALEAELAALEGRRVVVSFAWDGKLAALKAKLAALKA-OH
Active	–	–	H-AELAALEAELAALEGRSEDPVCSWGKLAALKAKLAALKA-OH
Active	–	–	CSCC[C@H](NC(=O)[C@@H]1CCCN1C(=O)[C@H](CCC(N)=O)NC(=O)[C@@H]1CCCN1C(=O)CNC(=O)[C@H](CCC(=O)O)NC(=O)[C@H](CC(C)C)NC(=O)[C@H](C)NC(=O)[C@H](C)NC(=O)[C@H](CC(C)C)NC(=O)[C@H](CCC(=O)O)NC(=O)[C@H](C)NC(=O)[C@H](CCC(=O)O)NC(=O)[C@H](CC(C)C)NC(=O)[C@H](C)NC(=O)[C@H](C)NC(=O)[C@H](CC(C)C)NC(=O)[C@H](CCC(=O)O)NC(=O)[C@@H](C)N)C(=O)N[C@@H](Cc1c[nH]c2ccccc12)C(=O)NCC(=O)N[C@@H](CO)C(=O)N[C@@H](Cc1c[nH]c2ccccc12)C(=O)N[C@@H](CCCNC(=N)N)C(=O)NCC(=O)N[C@@H](CCCCN)C(=O)N[C@@H](CC(C)C)C(=O)N[C@@H](C)C(=O)N[C@@H](C)C(=O)N[C@@H](CC(C)C)C(=O)N[C@@H](CCCCN)C(=O)N[C@@H](C)C(=O)N[C@@H](CCCCN)C(=O)N[C@@H](CC(C)C)C(=O)N[C@@H](C)C(=O)N[C@@H](C)C(=O)N[C@@H](CC(C)C)C(=O)N[C@@H](CCCCN)C(=O)N[C@@H](C)C(=O)O
